Data published in patent US20170166598A1, “HETEROARYL COMPOUNDS FOR KINASE INHIBITION” (ARIAD PHARMACEUTICALS, INC., priority 2014, published 2017).

Columns and labels:
Format in all cases: cell-based
[1] = target: T1, Her2 exon 20 YVMA insertion (A775_G776ins YVMA) (Homo sapiens, UniProt P04626, INS775YVMA); assay: Ba/F3-Her2 Exon20 YVMA cell anti-proliferative assay (CellTiter 96 MTS, 72 h); details: Ba/F3-Her2 Exon20 YVMA cells
T1 construct: expressed in transfected cells; host or cells: Ba/F3 (murine pro-B) cells transduced with lentivirus from pLVX-IRES puro
T1 sequence (P04626 with tags, fused parts or gaps INS775YVMA): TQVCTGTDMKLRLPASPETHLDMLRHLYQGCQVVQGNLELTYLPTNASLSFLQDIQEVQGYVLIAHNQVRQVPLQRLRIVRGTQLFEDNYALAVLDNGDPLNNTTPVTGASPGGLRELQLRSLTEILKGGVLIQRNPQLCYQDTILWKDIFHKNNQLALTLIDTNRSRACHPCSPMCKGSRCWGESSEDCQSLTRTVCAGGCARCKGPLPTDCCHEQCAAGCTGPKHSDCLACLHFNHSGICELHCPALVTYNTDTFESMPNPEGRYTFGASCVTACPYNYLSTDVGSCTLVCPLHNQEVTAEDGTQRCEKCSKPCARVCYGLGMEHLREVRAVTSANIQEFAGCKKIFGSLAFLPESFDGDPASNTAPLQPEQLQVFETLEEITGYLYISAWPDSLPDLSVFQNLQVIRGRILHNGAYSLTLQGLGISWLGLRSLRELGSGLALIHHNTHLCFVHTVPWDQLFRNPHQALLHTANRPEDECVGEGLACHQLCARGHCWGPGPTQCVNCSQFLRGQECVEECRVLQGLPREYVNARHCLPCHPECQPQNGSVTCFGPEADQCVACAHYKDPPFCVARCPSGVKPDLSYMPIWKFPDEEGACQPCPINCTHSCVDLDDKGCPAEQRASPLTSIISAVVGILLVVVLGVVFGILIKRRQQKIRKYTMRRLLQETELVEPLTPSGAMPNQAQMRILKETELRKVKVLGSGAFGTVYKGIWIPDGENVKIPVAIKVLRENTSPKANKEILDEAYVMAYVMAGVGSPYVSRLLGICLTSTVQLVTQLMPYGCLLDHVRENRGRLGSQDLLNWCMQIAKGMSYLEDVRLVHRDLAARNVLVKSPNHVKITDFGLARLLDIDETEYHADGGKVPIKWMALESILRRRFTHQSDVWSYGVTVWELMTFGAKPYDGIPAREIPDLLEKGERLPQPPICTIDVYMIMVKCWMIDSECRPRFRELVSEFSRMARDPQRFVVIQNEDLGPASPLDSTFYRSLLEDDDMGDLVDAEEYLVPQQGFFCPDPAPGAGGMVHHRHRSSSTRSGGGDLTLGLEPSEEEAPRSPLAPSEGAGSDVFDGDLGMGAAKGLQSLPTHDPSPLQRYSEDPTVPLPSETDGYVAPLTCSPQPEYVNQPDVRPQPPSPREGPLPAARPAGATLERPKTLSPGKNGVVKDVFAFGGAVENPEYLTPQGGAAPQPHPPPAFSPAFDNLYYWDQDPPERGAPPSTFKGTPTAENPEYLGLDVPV
From the text: A compound's ability in selectively inhibiting Her2 exon 20 YVMA insertion mutations can be assessed using Ba/F3 cells, a murine pro-B cell line, which have been transduced with Her2 Exon20 YVMA insertions. An expression vector, pLVX-IRES puro (Clontech) coding for […] (A775_G776ins YVMA), was transfected into HEK293 cells by the Trans-Lentiviral ORF Packaging System (Thermo Scientific), to produce virus encoding EGFR exon 20 insertions. Ba/F3 (DSMZ) cells maintained in RPMI 1640 medium supplemented with 10% fetal bovine serum, 200 μM L-glutamine/200 μg/mL penicillin/200 μg/mL streptomycin (Life Technology) and 10 ng/mL IL-3 (R&D system), were infected by EGFR Exon20 virus and subsequently selected by puromycin (Life Technology) selection and IL-3 depletion. Ba/F3 cells expressing Her2 Exon20 YVMA insertions (named Ba/F3-Her2 Exon20 YVMA) can proliferate in the absence of IL-3. The anti-proliferative activity of compounds was determined as follows: BaF3-Her2 Exon20 YVMA cells seeded in 96 well plates (2500 cells/well) were treated with test compound (dissolved in DMSO) at a series of concentrations (4-fold dilution, top concentration: 10,000 nM). The plates were incubated for 72 h in a 37° C. incubator with 5% CO2, and the number of viable cells in each well were measured indirectly by CellTiter 96@ Aqueous One Solution Cell Proliferation Assay (Promega; this assay is a colorimetric method for determining the number of viable cells through measurement of their metabolic activity by detection of enzymatic conversion of tetrazolium salts into blue formazan derivatives). Reagent (20 μL) was added into each well, and the plates were returned to the incubator for 2 h. The absorbance in each well was then measured at 490 nm using an Envision plate reader (Perkin Elmer).

[2] = target: T2, human EGFR exon 20 insertion NPG (H773_V774insNPG) (Homo sapiens, UniProt P00533, INS772GNP); assay: Ba/F3-EGFR-Exon20-NPG cell anti-proliferative assay (CellTiter 96 MTS, 72 h); details: Ba/F3-EGFR-Exon20-NPG cells
T2 construct: expressed in transfected cells; host or cells: Ba/F3 (murine pro-B) cells transduced with lentivirus from pLVX-IRES puro
T2 sequence (P00533 with tags, fused parts or gaps INS772GNP): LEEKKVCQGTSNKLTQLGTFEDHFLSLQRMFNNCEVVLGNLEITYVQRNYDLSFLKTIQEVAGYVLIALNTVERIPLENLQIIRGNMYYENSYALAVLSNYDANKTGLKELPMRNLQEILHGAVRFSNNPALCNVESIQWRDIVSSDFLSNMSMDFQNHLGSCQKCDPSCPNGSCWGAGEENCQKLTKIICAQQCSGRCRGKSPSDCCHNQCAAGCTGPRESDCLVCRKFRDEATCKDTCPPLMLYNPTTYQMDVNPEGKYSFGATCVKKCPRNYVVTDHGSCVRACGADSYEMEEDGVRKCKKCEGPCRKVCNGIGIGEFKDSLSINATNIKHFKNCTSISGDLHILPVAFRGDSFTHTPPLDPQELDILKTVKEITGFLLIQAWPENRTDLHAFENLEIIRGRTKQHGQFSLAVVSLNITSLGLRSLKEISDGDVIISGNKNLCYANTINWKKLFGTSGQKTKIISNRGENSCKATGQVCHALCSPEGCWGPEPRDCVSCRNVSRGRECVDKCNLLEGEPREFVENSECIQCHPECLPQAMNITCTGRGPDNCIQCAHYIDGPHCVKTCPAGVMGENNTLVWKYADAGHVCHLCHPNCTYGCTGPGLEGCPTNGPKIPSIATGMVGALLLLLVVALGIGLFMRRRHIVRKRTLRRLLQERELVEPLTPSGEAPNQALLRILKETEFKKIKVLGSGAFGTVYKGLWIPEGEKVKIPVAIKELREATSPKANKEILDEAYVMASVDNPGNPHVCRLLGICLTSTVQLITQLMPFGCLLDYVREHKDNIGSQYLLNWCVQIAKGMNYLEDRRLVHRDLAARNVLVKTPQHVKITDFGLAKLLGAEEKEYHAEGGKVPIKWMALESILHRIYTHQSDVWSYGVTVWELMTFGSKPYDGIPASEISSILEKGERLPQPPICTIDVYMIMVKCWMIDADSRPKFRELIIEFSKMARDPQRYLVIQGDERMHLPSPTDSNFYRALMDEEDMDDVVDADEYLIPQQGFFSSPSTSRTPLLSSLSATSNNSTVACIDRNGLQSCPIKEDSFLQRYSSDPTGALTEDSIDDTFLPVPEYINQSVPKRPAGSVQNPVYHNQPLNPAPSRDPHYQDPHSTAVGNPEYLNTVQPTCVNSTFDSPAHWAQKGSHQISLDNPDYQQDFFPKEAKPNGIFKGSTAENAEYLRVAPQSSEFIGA
Method: (§1) An expression vector, pLVX-IRES puro (Clontech) coding for human EGFR exon 20 insertions NPG (H773_V774insNPG) or ASV (V769_D770insASV), was transfected into HEK293 cells by the Trans-Lentiviral ORF Packaging System (Thermo Scientific), to produce virus encoding EGFR exon 20 insertions. Ba/F3 (DSMZ) cells maintained in RPMI 1640 medium supplemented with 10% fetal bovine serum, 200 μM L-glutamine/l 200 μg/mL penicillin/200 μg/mL streptomycin (Life Technology) and 10 ng/mL IL-3 (R&D system), were infected by EGFR Exon20 virus and subsequently selected by puromycin (Life Technology) selection and IL-3 depletion. […] The anti-proliferative activity of compounds were determined as follows: BaF3-EGFR-Exon20 cells (NPG or ASV) seeded in 96 well plates (2500 cells/well) were treated with test compound (dissolved in DMSO) at a series of concentrations (4-fold dilution, top concentration: 10,000 nM). The plates were incubated for 72 h in a 37° C. incubator with 5% CO2, and the number of viable cells in each well were measured indirectly by CellTiter 96® Aqueous One Solution Cell Proliferation Assay (Promega) This assay is a colorimetric method for determining the number of viable cells through measurement of their metabolic activity by detection of enzymatic conversion of tetrazolium salts into blue formazan derivatives. Reagent (20 μL) was added into each well, and the plates were returned to the incubator for 2 h. The absorbance in each well was then measured at 490 nm using an Envision plate reader (Perkin Elmer).

[3] = target: T3, human EGFR exon 20 insertion ASV (V769_D770insASV) (Homo sapiens, UniProt P00533, INS769ASV); assay: Ba/F3-EGFR-Exon20-ASV cell anti-proliferative assay (CellTiter 96 MTS, 72 h); details: Ba/F3-EGFR-Exon20-ASV cells
T3 construct: expressed in transfected cells; host or cells: Ba/F3 (murine pro-B) cells transduced with lentivirus from pLVX-IRES puro
T3 sequence (P00533 with tags, fused parts or gaps INS769ASV): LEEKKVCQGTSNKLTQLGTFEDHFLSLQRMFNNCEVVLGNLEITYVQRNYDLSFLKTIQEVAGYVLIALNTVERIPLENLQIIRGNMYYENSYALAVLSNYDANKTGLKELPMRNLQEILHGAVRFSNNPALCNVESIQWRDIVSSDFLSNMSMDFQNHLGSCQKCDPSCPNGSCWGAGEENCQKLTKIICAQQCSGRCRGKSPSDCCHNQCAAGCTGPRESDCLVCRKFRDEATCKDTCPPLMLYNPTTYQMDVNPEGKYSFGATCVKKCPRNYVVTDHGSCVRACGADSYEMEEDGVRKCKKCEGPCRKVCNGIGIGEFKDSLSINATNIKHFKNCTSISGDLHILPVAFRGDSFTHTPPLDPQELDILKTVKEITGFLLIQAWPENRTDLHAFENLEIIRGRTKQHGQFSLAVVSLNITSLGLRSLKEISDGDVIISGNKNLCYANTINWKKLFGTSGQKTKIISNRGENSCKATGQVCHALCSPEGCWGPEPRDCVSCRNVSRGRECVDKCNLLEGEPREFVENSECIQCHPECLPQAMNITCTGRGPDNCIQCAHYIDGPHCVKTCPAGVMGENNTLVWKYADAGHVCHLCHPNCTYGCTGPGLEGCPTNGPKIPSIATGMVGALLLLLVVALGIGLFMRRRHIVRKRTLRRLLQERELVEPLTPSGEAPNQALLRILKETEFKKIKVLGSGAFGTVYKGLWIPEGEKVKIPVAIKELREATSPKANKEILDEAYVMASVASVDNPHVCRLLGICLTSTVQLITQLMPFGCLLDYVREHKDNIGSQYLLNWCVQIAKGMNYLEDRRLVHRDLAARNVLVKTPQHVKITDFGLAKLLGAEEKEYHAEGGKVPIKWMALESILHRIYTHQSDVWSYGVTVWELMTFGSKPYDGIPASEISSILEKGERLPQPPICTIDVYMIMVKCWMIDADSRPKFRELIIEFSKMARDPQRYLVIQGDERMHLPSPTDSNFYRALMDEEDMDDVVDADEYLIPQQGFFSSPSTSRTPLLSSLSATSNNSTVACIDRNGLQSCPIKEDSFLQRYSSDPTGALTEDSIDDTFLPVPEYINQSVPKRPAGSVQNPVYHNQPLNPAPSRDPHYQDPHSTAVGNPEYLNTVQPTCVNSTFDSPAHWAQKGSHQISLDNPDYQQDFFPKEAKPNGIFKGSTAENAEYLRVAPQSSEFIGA
Method: as §1

[4] = target: T4, human EGFR E746-A750 deletion and T790M Mutation (Homo sapiens, UniProt P00533, DEL746-750/T790M); assay: Ba/F3-EGFR-Del/T790M cell anti-proliferative assay (CellTiter 96 MTS, 72 h); details: Ba/F3-EGFR-Del/T790M cells
T4 construct: expressed in transfected cells; host or cells: Ba/F3 (murine pro-B) cells transduced with lentivirus from pLVX-IRES puro
T4 sequence (P00533 with tags, fused parts or gaps DEL746-750/T790M): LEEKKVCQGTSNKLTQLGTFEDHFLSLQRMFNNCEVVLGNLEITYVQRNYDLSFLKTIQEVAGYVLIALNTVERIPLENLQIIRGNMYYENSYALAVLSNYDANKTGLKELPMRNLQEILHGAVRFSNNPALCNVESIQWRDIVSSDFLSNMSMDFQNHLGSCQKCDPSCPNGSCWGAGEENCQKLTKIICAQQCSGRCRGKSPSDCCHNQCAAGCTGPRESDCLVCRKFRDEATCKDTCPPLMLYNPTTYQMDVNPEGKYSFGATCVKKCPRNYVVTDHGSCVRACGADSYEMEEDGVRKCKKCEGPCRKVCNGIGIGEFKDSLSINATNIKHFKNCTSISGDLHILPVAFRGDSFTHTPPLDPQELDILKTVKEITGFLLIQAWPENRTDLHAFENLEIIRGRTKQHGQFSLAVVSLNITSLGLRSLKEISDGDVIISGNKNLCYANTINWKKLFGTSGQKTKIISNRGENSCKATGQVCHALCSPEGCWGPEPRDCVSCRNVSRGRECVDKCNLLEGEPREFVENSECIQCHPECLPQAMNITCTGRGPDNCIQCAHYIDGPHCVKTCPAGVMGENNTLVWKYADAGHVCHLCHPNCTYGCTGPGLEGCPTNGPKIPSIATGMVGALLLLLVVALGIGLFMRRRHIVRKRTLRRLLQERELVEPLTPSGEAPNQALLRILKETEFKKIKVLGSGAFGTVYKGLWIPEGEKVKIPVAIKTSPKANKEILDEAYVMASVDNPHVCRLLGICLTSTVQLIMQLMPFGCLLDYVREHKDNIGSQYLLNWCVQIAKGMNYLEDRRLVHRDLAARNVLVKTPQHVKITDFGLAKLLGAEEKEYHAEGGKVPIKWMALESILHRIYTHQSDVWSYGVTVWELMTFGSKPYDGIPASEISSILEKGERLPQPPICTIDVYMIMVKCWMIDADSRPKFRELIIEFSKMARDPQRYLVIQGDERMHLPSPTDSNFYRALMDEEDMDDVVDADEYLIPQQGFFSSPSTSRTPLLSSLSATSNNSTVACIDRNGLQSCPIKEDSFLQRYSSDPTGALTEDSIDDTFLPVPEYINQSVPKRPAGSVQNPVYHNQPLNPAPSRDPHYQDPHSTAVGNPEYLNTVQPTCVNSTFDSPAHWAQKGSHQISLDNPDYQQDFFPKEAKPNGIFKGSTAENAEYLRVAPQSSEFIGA
Method: An expression vector, pLVX-IRES puro (Clontech) coding for human EGFR E746-A750 deletion and T790M Mutation, was transfected into HEK293 cells by the Trans-Lentiviral ORF Packaging System (Thermo Scientific), to produce virus encoding EGFR exon 19 deletion and T790M mutations. Ba/F3 (DSMZ) cells maintained in RPMI 1640 medium supplemented with 10% fetal bovine serum, 200 μM L-glutamine/200 μg/mL penicillin/200 μg/mL streptomycin (Life Technology) and 10 ng/mL IL-3 (R&D system), were infected by EGFR E746-A750 deletion and T790M Mutation virus and subsequently selected by puromycin (Life Technology) selection and IL-3 depletion. […] The anti-proliferative activity of compounds was determined as follows: BaF3-EGFR-Del/T790M cells seeded in 96 well plates (2500 cells/well) were treated with test compound (dissolved in DMSO) at a series of concentrations (4-fold dilution, top concentration: 10,000 nM). The plates were incubated for 72 h in a 37° C. incubator with 5% CO2, and the number of viable cells in each well were measured indirectly by CellTiter 96® Aqueous One Solution Cell Proliferation Assay (Promega; this assay is a colorimetric method for determining the number of viable cells through measurement of their metabolic activity by detection of enzymatic conversion of tetrazolium salts into blue formazan derivatives). Reagent (20 μL) was added into each well, and the plates were returned to the incubator for 2 h. The absorbance in each well was then measured at 490 nm using an Envision plate reader (Perkin Elmer).

| SMILES | IC50 [1] | IC50 [2] | IC50 [3] | EGFR exon 19 deletion and exon 20 T790M mutation IC50 [4] |
| --- | --- | --- | --- | --- |
| C#Cc1cnc(Nc2cc(NC(=O)C=C)c(N(C)CCN(C)C)cc2OC)nc1-c1cn2c3c(cccc13)CCC2 [Example 31, N-(5-((4-(5,6-dihydro-4H-pyrrolo[3,2,1-ij]quinolin-1-yl)-5-ethynylpyrimidin-2-yl)amino)-2-((2-(dimethylamino)ethyl)(methyl)amino)-4-methoxyphenyl)acrylamide] | < 100 nM | < 100 nM | < 100 nM | A (IC50 value for the indicated mutant below about 100 nM) |
| C=CC(=O)Nc1cc(Nc2ncc(CCC3CCCC3)c(-c3cn4c5c(cccc35)CCC4)n2)c(OC)cc1N(C)CCN(C)C [Example 35] | 500 to 1000 nM | 100 to 500 nM | 500 to 1000 nM | C (IC50 value for the indicated mutant between greater than about 500 to about 1 μM) |
| C=CC(=O)Nc1cc(Nc2ncc(CCC(=O)OC)c(-c3cn4c5c(cccc35)CCC4)n2)c(OC)cc1N(C)CCN(C)C [Example 39, methyl 3-(2-((5-acrylamido-4-((2-(dimethylamino)ethyl)(methyl)amino)-2-methoxyphenyl)amino)-4-(5,6-dihydro-4H-pyrrolo[3,2,1-ij]quinolin-1-yl)pyrimidin-5-yl)propanoate] | 100 to 500 nM | < 100 nM | 100 to 500 nM | A (IC50 value for the indicated mutant below about 100 nM) |
| C=CC(=O)Nc1cc(Nc2ncc(CCC#N)c(-c3cn4c5c(cccc35)CCC4)n2)c(OC)cc1N(C)CCN(C)C [Example 41, N-(5-((5-(2-cyanoethyl)-4-(5,6-dihydro-4H-pyrrolo[3,2,1-ij]quinolin-1-ul)pyrimidin-2-yl)amino)-2-((2-(dimethylamino)ethyl)(methyl)amino)-4-methoxyphenyl)acrylamide] | < 100 nM | < 100 nM | < 100 nM | A (IC50 value for the indicated mutant below about 100 nM) |
| C=CC(=O)Nc1cc(Nc2ncc(/C=C/C#N)c(-c3cn4c5c(cccc35)CCC4)n2)c(OC)cc1N(C)CCN(C)C [Example 42, (E)-N-(5-((5-(2-cyanovinyl)-4-(5,6-dihydro-4H-pyrrolo[3,2,1-ij]quinolin-1-yl)pyrimidin-2-yl)amino)-2-((2-(dimethylamino)ethyl)(methyl)amino)-4-methoxyphenyl)acrylamide] | < 100 nM | < 100 nM | < 100 nM | A (IC50 value for the indicated mutant below about 100 nM) |

The next lines start with results.

| IC50 [1] | IC50 [2] | IC50 [3] | SMILES | EGFR exon 19 deletion and exon 20 T790M mutation IC50 [4] |
| --- | --- | --- | --- | --- |
| 100 to 500 nM | < 100 nM | < 100 nM | C=CC(=O)Nc1cc(Nc2ncc(CCC(C)O)c(-c3cn4c5c(cccc35)CCC4)n2)c(OC)cc1N(C)CCN(C)C (stereo not shown) [Example 32, N-(5-((4-(5,6-dihydro-4H-pyrrolo[3,2,1-ij]quinolin-1-yl)-5-(3-hydroxybutyl)pyrimidin-2-yl)amino)-2-((2-(dimethylamino)ethyl)(methyl)amino)-4-methoxyphenyl)acrylamide] | A (IC50 value for the indicated mutant below about 100 nM) |
| < 100 nM | < 100 nM | < 100 nM | C=CC(=O)Nc1cc(Nc2ncc(CCCOC)c(-c3cn4c5c(cccc35)CCC4)n2)c(OC)cc1N(C)CCN(C)C [Example 33, N-(5-((4-(5,6-dihydro-4H-pyrrolo[3,2,1-ij]quinolin-1-yl)-5-(3-methoxypropyl)pyrimidin-2-yl)amino)-2-((2-(dimethylamino)ethyl)(methyl)amino)-4-methoxyphenyl)acrylamide] | A (IC50 value for the indicated mutant below about 100 nM) |
